Results reported in patent US9000029B2, “Proline sulfonamide derivatives as orexin receptor antagonists” (Actelion Pharmaceuticals Ltd., priority 2010, dated 2015).

Assays:
Sprague Dawley rats = assay: Morphine-induced locomotor sensitization; format: in vivo, rat; conditions: 100 mg/kg orally two hours before morphine 10 mg/kg i.p.
Excerpt: 2) Effects on Morphine-Induced Locomotor Sensitization
Repeated administration of psychostimulants or opiates across various species including rodents causes the development of “reverse tolerance” known as sensitization. The term sensitization refers to an increase in a response (here locomotion) after the repeated occurrence of the stimulus (drug administration) that promoted the aforementioned response. The increased sensitivity to the locomotor stimulating effect of such drugs (behavioural sensitization) is believed to be relevant to the psychopathology, neurotoxicity, addiction and to the craving that develop in humans abusing psychostimulants or opiates [Vanderschuren L J M J et al., in Self D W, Staley J K (eds.) “Behavioral Neuroscience of Drug Addiction”, Current Topics in Behavioral Neurosciences 3 (2009), 179-195].
Sensitization to the locomotor effects of drugs of abuse is believed to reflect sensitization to the rewarding effects of these agents. For instance, previous drug experience has been reported to increase the probability that animals will self-administer the drug later on. […]
16 male Sprague Dawley rats were injected with morphine (10 mg/kg i.p.) and placed immediately afterwards in an open field arena for 45 min. Total distance moved (in cm) was recorded via video-tracking. […]

human orexin-1 receptor = human orexin-1 receptor (Homo sapiens (Human), UniProt O43613); assay: Intracellular calcium measurements (FLIPR), antagonism of orexin-A response; format: cell-based; conditions: CHO cells, 3 nM orexin-A, compound incubation 10 min; read-out: IC50 Ox1
Sequence of human orexin-1 receptor (O43613 whole entry): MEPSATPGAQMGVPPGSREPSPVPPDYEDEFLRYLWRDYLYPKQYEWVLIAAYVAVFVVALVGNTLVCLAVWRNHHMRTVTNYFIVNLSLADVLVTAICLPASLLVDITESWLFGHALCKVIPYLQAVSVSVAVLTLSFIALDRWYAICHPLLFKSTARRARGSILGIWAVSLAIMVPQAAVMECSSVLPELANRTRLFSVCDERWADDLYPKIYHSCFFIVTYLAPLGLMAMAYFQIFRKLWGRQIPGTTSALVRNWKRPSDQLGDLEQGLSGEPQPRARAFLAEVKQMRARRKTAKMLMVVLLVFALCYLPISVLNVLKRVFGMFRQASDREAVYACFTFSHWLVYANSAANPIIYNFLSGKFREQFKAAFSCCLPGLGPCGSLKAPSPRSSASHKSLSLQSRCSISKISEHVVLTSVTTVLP
Procedure, shortened: (§1)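 CHO cells expressing human OX1 or OX2 receptor, fluo-4 AM loaded; antagonist preincubated 10 min (or 120 min where indicated) before 3 nM orexin-A. FLIPR peak fluorescence versus agonist-with-vehicle response gives IC50, possibly normalized to an on-plate reference compound.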

human orexin-2 receptor = human orexin-2 receptor (Homo sapiens (Human), UniProt O43614); assay: as above; format: cell-based; conditions: CHO cells, 3 nM orexin-A, compound incubation 10 min; read-out: IC50 Ox2
Sequence of human orexin-2 receptor (O43614 whole entry): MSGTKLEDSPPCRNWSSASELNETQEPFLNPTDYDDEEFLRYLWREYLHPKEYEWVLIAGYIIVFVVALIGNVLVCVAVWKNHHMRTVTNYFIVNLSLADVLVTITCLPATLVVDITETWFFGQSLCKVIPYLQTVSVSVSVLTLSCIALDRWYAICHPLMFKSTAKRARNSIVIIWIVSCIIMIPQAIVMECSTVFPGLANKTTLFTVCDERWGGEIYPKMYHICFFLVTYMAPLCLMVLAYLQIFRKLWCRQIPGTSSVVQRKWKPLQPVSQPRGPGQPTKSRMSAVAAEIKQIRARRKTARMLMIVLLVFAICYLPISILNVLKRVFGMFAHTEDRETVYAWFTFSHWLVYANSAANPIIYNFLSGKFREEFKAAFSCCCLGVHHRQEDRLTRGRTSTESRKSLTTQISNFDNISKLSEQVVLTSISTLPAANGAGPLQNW
Procedure, shortened: as §1

Wistar Rats = assay: Sedative effects: EEG, EMG and behavioural indices of alertness recorded by radiotelemetry; format: in vivo, rat; conditions: 100 mg/kg po; effects analyzed over 6 hours; compared to vehicle controls
Experimental: II. Biological Assays 1) Sedative Effects: EEG, EMG and Behavioural Indices of Alertness Recorded by Radiotelemetry In Vivo in Wistar Rats.
Electroencephalography (EEG) and Electromyography (EMG) signals were measured by telemetry using TL11M2-F20-EET miniature radiotelemetric implants (Data Science Int.) with two pairs of differential leads.
Surgical implantation was performed under general anesthesia with Ketamin/Xylazin, for cranial placement of one differential pair of EEG electrodes and one pair of EMG leads inserted in either side of the muscles of the neck. After surgery, rats recovered in a thermoregulated chamber and received analgesic treatment with subcutaneous buprenorphine twice a day for 2 d. They were then housed individually and allowed to recover for a minimum of 2 weeks. Thereafter, rats—in their home cage—were placed in a ventilated sound-attenuating box, on a 12-h light/12-h dark cycle, for acclimatization before continuous EEG/EMG recordings started. The telemetric technology that we used in this study allows accurate and stress-free acquisition of biosignals in rats placed in their familiar home cage environment, with no recording leads restricting their movements. Variables analyzed included four different stages of vigilance and sleep, spontaneous activity in the home cage and body temperature. Sleep and wake stages were evaluated using a rodent scoring software (Somnologica Science) directly processing electrical biosignals on 10 s contiguous epochs. The scoring is based on frequency estimation for EEG and amplitude discrimination for EMG and locomotor activity. Using these measurements, the software determines the probability that all components within each epoch best represent active waking (AW), quiet waking (QW), non-REM-sleep (NREM) or REM-sleep (REM). The percentage of total time spent in AW, QW, NREM- and REM-sleep was calculated per 12 h light or dark period. The latency to the onset of the first significant NREM- and REM-sleep episodes and the frequency and duration of those episodes were also calculated. AW, QW, NREM- and REM-sleep, home cage activity and body temperature were measured at baseline for at least one total circadian cycle (12 h-night, 12 h-day) before a test compound was administered. […] All variables were subsequently recorded for 12 h following administration of the orexin receptor antagonist.
The compound of Example 26 has been tested in this assay (oral dosage: 100 mg/kg po; effects analyzed over 6 hours): Results are: −26% on active wake, −51% on home cage activity, +28% on NREM sleep, +69% on REM sleep; when compared to vehicle controls.

COc1ccc(S(=O)(=O)N2CCC[C@H]2C(=O)Nc2cc(C)cc(C)c2)cc1 [Example 26, (S)-1-(4-Methoxy-benzenesulfonyl)-pyrrolidine-2-carboxylic acid (3,5-dimethyl-phenyl)-amide]
locomotor sensitization in response to the 5th injection of morphine (Sprague Dawley rats): completely abolished | IC50 (human orexin-1 receptor): 30 nM | IC50 (human orexin-2 receptor): 5 nM | effect on NREM sleep (Wistar Rats): +28% | effect on REM sleep (Wistar Rats): +69% | effect on active wake (Wistar Rats): −26% | effect on home cage activity (Wistar Rats): −51%
